Data published in ChEMBL document CHEMBL4507276 (2021).

What was measured:
Conditions in all cases: Compound concentration 1000.0 nM
[1] = target: Serine/threonine-protein kinase Chk2 (Homo sapiens) (UniProt O96017)
[2] = target: Serine/threonine-protein kinase MAK (Homo sapiens) (UniProt P20794)
[3] = target: Receptor tyrosine-protein kinase erbB-2 (Homo sapiens) (UniProt P04626)
[4] = target: Ribosomal protein S6 kinase alpha-2 (Homo sapiens) (UniProt Q15349)
[5] = tested on: Mast/stem cell growth factor receptor Kit (Homo sapiens), P10721 [A829P]
[6] = target: T1, Mitogen-activated protein kinase kinase kinase kinase 2 (Homo sapiens) (UniProt Q12851)
T1 sequence (whole entry): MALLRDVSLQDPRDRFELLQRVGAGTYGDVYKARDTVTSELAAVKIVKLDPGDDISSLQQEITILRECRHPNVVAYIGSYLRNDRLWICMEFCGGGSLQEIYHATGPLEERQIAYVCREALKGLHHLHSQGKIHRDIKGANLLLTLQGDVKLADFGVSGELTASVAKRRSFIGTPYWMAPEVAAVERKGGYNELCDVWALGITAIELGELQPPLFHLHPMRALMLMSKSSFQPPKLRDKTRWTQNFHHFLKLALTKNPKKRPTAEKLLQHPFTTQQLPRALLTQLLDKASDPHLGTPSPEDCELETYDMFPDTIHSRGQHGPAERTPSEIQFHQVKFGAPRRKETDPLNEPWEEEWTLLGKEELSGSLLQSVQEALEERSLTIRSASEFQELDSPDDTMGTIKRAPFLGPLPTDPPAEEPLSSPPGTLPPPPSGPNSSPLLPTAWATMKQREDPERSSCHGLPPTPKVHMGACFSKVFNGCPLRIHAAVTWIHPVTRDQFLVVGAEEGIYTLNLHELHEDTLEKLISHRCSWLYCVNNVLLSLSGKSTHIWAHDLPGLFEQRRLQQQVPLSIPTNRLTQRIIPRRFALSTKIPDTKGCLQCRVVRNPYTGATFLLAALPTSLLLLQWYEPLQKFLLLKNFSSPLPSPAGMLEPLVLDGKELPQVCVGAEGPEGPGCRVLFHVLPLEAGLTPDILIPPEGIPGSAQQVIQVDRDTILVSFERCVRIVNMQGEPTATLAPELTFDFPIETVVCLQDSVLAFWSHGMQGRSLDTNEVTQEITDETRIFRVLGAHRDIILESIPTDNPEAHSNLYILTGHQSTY

[7] = target: T2, Homeodomain-interacting protein kinase 4 (Homo sapiens) (UniProt Q8NE63)
T2 sequence (whole entry): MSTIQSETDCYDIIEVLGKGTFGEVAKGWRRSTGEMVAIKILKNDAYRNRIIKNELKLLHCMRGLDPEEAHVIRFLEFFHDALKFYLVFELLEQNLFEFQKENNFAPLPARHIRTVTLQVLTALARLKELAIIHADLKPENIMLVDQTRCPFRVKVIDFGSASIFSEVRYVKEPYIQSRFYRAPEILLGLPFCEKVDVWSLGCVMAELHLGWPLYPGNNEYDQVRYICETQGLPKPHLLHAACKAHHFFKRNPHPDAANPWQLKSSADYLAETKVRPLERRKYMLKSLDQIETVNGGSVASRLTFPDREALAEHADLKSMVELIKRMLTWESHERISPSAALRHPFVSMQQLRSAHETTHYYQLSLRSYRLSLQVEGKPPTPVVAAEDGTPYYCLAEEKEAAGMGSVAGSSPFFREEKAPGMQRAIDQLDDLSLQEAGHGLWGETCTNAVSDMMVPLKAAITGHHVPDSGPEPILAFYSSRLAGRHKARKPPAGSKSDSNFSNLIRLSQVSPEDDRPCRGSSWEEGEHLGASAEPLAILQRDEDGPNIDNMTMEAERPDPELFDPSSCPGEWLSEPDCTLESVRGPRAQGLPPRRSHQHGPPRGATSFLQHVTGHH

[8] = target: Serine/threonine-protein kinase WNK3 (Homo sapiens) (UniProt Q9BYP7)
[9] = target: Serine/threonine-protein kinase Nek7 (Homo sapiens) (UniProt Q8TDX7)
[10] = target: Eukaryotic translation initiation factor 2-alpha kinase 1 (Homo sapiens) (UniProt Q9BQI3)
[11] = target: Ribosomal protein S6 kinase alpha-1 (Homo sapiens) (UniProt Q15418)
[12] = target: Serine/threonine-protein kinase STK11 (Homo sapiens) (UniProt Q15831)
[13] = target: Mitogen-activated protein kinase kinase kinase 19 (Homo sapiens) (UniProt Q56UN5)
[14] = target: Mitogen-activated protein kinase kinase kinase kinase 4 (Homo sapiens) (UniProt O95819)
[15] = target: Tyrosine-protein kinase ABL1 (Homo sapiens) (UniProt P00519)
[16] = tested on: ALK tyrosine kinase receptor (Homo sapiens), Q9UM73 [L1196M]
[17] = target: Receptor-interacting serine/threonine-protein kinase 4 (Homo sapiens) (UniProt P57078)
[18] = target: Activin receptor type-2B (Homo sapiens) (UniProt Q13705)
[19] = target: Leucine-rich repeat serine/threonine-protein kinase 2 (Homo sapiens) (UniProt Q5S007)
[20] = tested on: Receptor-type tyrosine-protein kinase FLT3 (Homo sapiens), P36888 [UNDEFINED MUTATION]
[21] = tested on: Epidermal growth factor receptor (Homo sapiens), P00533 [UNDEFINED MUTATION]
[22] = target: Cyclin-dependent kinase 11A (Homo sapiens) (UniProt Q9UQ88)

Measured: residual activity

Tyrosine-protein kinase ABL1 (Homo sapiens), sequence (P00519 whole entry): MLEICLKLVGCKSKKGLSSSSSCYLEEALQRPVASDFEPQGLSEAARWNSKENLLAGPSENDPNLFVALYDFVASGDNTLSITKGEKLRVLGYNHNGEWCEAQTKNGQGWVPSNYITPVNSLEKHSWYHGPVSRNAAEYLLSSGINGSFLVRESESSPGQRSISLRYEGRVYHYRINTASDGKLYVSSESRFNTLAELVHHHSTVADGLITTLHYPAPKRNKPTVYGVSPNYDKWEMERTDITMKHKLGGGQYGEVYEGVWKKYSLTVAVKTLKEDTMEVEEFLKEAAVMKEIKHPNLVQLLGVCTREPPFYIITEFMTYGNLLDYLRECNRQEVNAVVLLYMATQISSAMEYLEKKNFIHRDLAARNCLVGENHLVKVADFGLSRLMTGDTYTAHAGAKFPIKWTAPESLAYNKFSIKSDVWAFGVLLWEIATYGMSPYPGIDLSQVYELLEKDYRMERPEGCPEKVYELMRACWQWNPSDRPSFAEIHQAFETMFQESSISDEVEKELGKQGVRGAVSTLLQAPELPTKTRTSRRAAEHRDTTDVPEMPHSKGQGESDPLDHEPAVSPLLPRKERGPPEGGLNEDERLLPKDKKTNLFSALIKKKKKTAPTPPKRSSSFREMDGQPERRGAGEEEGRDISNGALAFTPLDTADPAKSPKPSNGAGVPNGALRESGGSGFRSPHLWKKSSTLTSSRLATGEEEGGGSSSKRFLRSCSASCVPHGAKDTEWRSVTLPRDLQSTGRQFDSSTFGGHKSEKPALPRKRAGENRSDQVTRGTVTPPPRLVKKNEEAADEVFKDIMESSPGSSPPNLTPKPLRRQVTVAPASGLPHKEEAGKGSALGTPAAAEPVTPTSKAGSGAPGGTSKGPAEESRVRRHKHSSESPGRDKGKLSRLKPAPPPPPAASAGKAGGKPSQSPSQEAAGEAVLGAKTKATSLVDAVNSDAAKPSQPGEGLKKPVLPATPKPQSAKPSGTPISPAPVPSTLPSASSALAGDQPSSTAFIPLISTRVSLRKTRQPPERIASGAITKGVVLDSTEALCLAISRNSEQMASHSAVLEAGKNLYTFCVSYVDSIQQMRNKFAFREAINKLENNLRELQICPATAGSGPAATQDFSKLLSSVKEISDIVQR
Serine/threonine-protein kinase STK11 (Homo sapiens), sequence (Q15831 whole entry): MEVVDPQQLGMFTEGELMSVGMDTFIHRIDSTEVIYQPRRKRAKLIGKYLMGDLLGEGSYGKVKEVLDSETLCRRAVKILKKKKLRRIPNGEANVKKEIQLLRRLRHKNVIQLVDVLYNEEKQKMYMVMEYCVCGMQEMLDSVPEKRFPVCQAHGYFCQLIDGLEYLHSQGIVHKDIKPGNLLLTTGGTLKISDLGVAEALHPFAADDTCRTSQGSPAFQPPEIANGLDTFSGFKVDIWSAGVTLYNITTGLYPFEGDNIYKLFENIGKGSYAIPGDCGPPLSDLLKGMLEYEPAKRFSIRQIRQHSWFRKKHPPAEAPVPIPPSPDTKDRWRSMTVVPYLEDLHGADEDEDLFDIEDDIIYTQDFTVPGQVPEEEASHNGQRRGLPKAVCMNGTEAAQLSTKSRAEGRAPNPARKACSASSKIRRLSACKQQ
Mitogen-activated protein kinase kinase kinase kinase 4 (Homo sapiens), sequence (O95819 2-1239 limits assumed): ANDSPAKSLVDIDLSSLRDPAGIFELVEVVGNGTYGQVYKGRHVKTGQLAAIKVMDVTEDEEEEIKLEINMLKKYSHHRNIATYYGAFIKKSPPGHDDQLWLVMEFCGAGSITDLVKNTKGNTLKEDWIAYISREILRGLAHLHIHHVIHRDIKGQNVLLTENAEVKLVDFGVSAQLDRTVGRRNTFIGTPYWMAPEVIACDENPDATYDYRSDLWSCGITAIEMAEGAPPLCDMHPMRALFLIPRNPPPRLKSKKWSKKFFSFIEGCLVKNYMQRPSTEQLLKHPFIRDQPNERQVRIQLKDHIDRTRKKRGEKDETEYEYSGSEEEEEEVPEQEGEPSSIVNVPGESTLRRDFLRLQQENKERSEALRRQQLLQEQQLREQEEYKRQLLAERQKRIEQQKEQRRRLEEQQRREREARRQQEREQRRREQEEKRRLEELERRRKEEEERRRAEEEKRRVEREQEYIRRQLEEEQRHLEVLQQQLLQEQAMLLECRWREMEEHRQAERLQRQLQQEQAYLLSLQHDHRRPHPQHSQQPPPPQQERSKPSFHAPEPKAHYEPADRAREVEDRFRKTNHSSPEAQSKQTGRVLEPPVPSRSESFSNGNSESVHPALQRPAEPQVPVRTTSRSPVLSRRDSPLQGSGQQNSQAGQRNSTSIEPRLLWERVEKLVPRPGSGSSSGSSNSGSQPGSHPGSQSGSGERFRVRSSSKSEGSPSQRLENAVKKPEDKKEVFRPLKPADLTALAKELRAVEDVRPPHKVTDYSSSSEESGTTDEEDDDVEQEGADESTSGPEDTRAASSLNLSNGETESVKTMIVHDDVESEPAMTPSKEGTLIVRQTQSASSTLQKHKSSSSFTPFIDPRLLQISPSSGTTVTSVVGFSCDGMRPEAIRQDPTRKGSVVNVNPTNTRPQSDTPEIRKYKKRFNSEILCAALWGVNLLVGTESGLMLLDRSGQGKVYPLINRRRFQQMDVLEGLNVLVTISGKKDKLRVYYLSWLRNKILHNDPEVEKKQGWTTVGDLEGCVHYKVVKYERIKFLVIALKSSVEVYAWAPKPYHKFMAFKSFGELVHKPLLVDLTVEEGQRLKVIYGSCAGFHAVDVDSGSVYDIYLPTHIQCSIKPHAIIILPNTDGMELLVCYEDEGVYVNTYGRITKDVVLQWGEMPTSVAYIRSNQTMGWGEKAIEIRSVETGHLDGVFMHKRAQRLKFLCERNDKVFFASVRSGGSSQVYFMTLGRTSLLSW
Receptor tyrosine-protein kinase erbB-2 (Homo sapiens), sequence (P04626 whole entry): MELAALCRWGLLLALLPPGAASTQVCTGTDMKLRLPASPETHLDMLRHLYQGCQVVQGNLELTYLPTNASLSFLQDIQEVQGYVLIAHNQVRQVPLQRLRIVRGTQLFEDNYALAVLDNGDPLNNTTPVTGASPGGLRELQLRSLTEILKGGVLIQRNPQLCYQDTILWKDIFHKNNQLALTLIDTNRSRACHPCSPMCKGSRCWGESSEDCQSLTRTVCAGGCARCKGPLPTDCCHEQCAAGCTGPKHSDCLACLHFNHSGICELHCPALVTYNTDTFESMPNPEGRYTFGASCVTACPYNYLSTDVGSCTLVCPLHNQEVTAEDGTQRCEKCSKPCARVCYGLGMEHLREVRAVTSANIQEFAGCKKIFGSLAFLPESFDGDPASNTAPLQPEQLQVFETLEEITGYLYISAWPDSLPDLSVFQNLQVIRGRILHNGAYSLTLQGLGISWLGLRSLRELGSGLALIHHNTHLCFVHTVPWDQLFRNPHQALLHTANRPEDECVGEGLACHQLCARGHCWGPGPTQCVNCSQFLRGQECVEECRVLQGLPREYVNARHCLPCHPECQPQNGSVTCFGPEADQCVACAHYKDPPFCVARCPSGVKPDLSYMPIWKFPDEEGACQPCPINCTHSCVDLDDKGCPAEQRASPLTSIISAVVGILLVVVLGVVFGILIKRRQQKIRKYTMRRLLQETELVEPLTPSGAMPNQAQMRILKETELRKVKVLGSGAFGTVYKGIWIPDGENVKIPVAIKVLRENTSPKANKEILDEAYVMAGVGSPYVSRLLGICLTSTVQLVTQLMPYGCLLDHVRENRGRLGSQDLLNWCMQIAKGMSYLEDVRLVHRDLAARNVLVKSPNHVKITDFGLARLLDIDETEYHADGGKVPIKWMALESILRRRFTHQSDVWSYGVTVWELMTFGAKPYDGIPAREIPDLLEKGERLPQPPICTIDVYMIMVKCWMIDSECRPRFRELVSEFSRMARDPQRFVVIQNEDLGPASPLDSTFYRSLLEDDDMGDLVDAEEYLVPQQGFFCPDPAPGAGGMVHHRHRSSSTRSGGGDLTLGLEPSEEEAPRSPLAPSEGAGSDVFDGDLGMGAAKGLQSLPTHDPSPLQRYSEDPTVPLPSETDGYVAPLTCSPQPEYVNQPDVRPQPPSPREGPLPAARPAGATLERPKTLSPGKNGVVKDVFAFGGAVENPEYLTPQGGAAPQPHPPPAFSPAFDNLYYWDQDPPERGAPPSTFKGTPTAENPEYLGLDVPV
Ribosomal protein S6 kinase alpha-1 (Homo sapiens), sequence (Q15418 whole entry): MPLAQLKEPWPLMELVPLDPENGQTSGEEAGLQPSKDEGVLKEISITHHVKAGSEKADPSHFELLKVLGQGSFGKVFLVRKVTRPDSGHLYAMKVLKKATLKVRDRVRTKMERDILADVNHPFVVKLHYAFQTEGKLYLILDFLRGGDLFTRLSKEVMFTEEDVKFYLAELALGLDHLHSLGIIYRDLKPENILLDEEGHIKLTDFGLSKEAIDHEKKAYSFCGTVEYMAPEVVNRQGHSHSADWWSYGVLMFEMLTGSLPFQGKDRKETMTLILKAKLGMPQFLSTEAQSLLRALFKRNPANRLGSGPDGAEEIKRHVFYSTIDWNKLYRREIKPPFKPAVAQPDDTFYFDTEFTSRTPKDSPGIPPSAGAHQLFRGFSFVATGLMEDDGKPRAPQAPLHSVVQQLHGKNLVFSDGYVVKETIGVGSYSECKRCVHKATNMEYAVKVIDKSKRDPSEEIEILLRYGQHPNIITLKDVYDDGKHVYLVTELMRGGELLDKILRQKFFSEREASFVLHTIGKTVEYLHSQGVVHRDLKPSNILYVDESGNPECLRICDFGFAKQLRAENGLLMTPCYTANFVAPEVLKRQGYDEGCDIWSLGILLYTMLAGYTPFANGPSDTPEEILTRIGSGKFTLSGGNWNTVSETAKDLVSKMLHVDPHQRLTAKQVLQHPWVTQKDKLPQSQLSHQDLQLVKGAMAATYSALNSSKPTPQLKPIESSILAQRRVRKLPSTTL
Serine/threonine-protein kinase Nek7 (Homo sapiens), sequence (Q8TDX7 whole entry, looked up): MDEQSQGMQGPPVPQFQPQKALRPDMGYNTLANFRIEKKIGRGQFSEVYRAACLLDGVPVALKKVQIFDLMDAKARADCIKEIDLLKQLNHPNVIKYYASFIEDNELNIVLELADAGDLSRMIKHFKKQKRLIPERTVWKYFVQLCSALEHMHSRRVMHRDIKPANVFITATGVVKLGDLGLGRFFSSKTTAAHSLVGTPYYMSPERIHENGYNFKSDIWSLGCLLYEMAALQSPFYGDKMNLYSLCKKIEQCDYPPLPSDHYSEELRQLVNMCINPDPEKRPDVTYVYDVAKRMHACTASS

CN(C)C(=O)Cn1cc(-c2nc(C3(c4ccc(-c5cnc(N)nc5)cc4)CC3)no2)cn1 [BI 0153]
inactive: [1] 100% | [2] 87% | [3] 80% | [4] 100% | [5] 93% | [6] 89% | [7] 100% | [8] 87% | [9] 100% | [10] 88% | [11] 99% | [12] 100% | [13] 73% | [14] 66% | [15] 93% | [16] 92% | [17] 70% | [18] 96% | [19] 100% | [20] 85% | [21] 67% | [22] 89%

CN(C)C(=O)Cn1cc(-c2nc([C@@](C)(c3ccc(-c4cnc(N)nc4)cc3)C3CC3)no2)cn1 [BI 665915]
inactive: [1] 100% | [2] 100% | [3] 100% | [4] 85% | [5] 80% | [6] 100% | [7] 70% | [8] 76% | [9] 90% | [10] 96% | [11] 93% | [12] 77% | [13] 61% | [14] 90% | [15] 84% | [16] 90% | [17] 93% | [18] 81% | [19] 74% | [20] 100% | [21] 100% | [22] 100%
